Results taken from patent publication US20230227466A1, “SUBSTITUTED THIENOPYRIMIDINES THAT INTERACT WITH THE RAS SUPERFAMILY FOR THE TREATMENT OF CANCERS, INFLAMMATORY DISEASES, RASOPATHIES, AND FIBROTIC DISEASE” (SHY Therapeutics, LLC, priority 2020, published 2023).

Experiments:
Assay in all cases: Cell proliferation assay (CellTiter 96 Aqueous One)
Type in all cases: cell-based
[1] = system: A-549 NSCLC cell line (KRAS G12S); settings: Homo sapiens; A549, 2-4 days, 10% FBS
In short: (§1)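 Read-out is MTS-based viability (CellTiter 96 Aqueous One) after 2–4 days of compound exposure at 37 °C in 10% FBS with 0.3% DMSO.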

[2] = system: PANC-1 pancreatic cancer cell line (KRAS G12D); settings: Homo sapiens; PANC-1, 2-4 days, 10% FBS
In short: as §1

[3] = system: SW-620 colorectal cancer cell line (KRAS G12V); settings: Homo sapiens; SW-620, 2-4 days, 10% FBS
In short: as §1

IC50 [1] [µM] | IC50 [2] [µM] | IC50 [3] [µM] | SMILES
0.75 to 1 | 0.75 to 1 | 0.75 to 1 | COCC1CCN(c2nc(-c3nccn3C)nc3sc(-c4ccn(C(C)C)n4)c(C)c23)C1 (racemic) [Compound 38, rac-6-(1-Isopropyl-1H-pyrazol-3-yl)-4-(3-(methoxymethyl)pyrrolidin-1-yl)-5-methyl-2-(1-methyl-1H-imidazol-2-yl)thieno[2,3-d]pyrimidine]
0.4 to 0.75 | < 0.4 | 0.4 to 0.75 | CO[C@@H]1CC[C@H](Nc2nc(-c3nccn3C)nc3sc(-c4ccn(C(C)C)n4)c(-c4ccccc4)c23)C1 [Example 4, 6-(1-isopropyl-1H-pyrazol-3-yl)-N-((1S,3R)-3-methoxycyclopentyl)-2-(1-methyl-1H-imidazol-2-yl)-5-phenylthieno[2,3-d]pyrimidin-4-amine]
0.4 to 0.75 | 0.4 to 0.75 | < 0.4 | COC[C@@H]1CC[C@@H]1CNc1nc(-c2nccn2C)nc2sc(-c3ccn(C(C)C)n3)c(C)c12 (racemic) [Compound 63, rac-6-(1-Isopropyl-1H-pyrazol-3-y)-N-(((1S,2R)-2-(methoxymethyl)cyclobutyl)methyl)-5-methyl-2-(1-methyl-1H-imidazol-2-yl)thieno[2,3-d]pyrimidin-4-amine]
